Laboratory results taken from the supplement of paper PMC10307832.

Assays:
Experiment in all cases: relative viability (nuclei count vs DMSO), 5 days (fraction); higher = more cells survive
[1] = compound: COc1ccc(-c2ccc3c(N4CCOC[C@@H]4C)nc(N4CCOC[C@@H]4C)nc3n2)cc1CO [AZD8055] + O=C(CCCCCCC(=O)Nc1ccccc1)NO [Vorinostat] (partner 1 µM)
In short: (§1)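 One day after seeding in 1536-well plates, lung cancer cell lines were dosed by pin tool. Dosing was either single-drug or a fixed anchor-drug dose plus five library-drug doses (not always all listed) in √10 steps. After 5 days, nuclei were stained in one fix-and-stain step and counted on 4× images, and relative viability is the nuclei count of treated wells over that of vehicle wells, given as the median of duplicate plates.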

[2] = compound: COc1ccc(-c2ccc3c(N4CCOC[C@@H]4C)nc(N4CCOC[C@@H]4C)nc3n2)cc1CO [AZD8055] + Cc1nc(NC(=O)N2CCC[C@H]2C(N)=O)sc1-c1ccnc(C(C)(C)C(F)(F)F)c1 [Alpelisib] (partner 2 µM)
In short: as §1

[3] = compound: COc1ccc(-c2ccc3c(N4CCOC[C@@H]4C)nc(N4CCOC[C@@H]4C)nc3n2)cc1CO [AZD8055] + C[C@]1(O)C[C@@H](c2nc(-c3ccc4ccc(-c5ccccc5)nc4c3)c3c(N)nccn32)C1 [Linsitinib] (partner 1 µM)
In short: as §1

[4] = compound: COc1ccc(-c2ccc3c(N4CCOC[C@@H]4C)nc(N4CCOC[C@@H]4C)nc3n2)cc1CO [AZD8055] + CC1(C)CCC(c2ccc(Cl)cc2)=C(CN2CCN(c3ccc(C(=O)NS(=O)(=O)c4ccc(N[C@H](CCN5CCOCC5)CSc5ccccc5)c(S(=O)(=O)C(F)(F)F)c4)cc3)CC2)C1 [Navitoclax] (partner 0.5 µM)
In short: as §1

| Cell Line | relative viability ([1]; first compound 0.01 µM) | relative viability ([1]; first compound 0.03162 µM) | relative viability ([1]; first compound 0.1 µM) | relative viability ([1]; first compound 0.3162 µM) | relative viability ([1]; first compound 1 µM) | relative viability ([2]; first compound 0.01 µM) | relative viability ([2]; first compound 0.03162 µM) | relative viability ([2]; first compound 0.1 µM) | relative viability ([2]; first compound 0.3162 µM) | relative viability ([2]; first compound 1 µM) | relative viability ([3]; first compound 0.01 µM) | relative viability ([3]; first compound 0.03162 µM) | relative viability ([3]; first compound 0.1 µM) | relative viability ([3]; first compound 0.3162 µM) | relative viability ([3]; first compound 1 µM) | relative viability ([4]; first compound 0.01 µM) | relative viability ([4]; first compound 0.03162 µM) | relative viability ([4]; first compound 0.1 µM) | relative viability ([4]; first compound 0.3162 µM) | relative viability ([4]; first compound 1 µM) |
| --- | --- | --- | --- | --- | --- | --- | --- | --- | --- | --- | --- | --- | --- | --- | --- | --- | --- | --- | --- | --- |
| LC-2-ad | 0.773 | 0.688 | 0.705 | 0.497 | 0.457 | 0.841 | 0.827 | 0.697 | 0.42 | 0.402 | 0.852 | 0.803 | 0.56 | 0.414 | 0.397 | 0.349 | 0.309 | 0.163 | 0.185 | 0.154 |
| HCC-15 | 0.833 | 0.844 | 0.762 | 0.468 | 0.333 | 0.86 | 0.769 | 0.639 | 0.366 | 0.282 | 0.778 | 0.808 | 0.644 | 0.467 | 0.29 | 0.782 | 0.591 | 0.561 | 0.38 | 0.293 |
| NCI-H2405 | 1.19 | 0.918 | 0.796 | 0.36 | 0.373 | 0.757 | 0.655 | 0.442 | 0.293 | 0.291 | 0.802 | 0.621 | 0.477 | 0.333 | 0.331 | 0.939 | 0.93 | 0.708 | 0.392 | 0.291 |
| LXF-289 | 0.745 | 0.754 | 0.709 | 0.523 | 0.515 | 1.02 | 0.923 | 0.742 | 0.567 | 0.515 | 1 | 0.997 | 0.812 | 0.568 | 0.515 | 0.979 | 0.995 | 0.831 | 0.694 | 0.529 |
